We go through eight molecules from ChEMBL document CHEMBL1123092, “Psychotomimetic N-methyl-N-isopropyltryptamines. Effects of variation of aromatic oxygen substituents” (1985).

The species entered for experiment [1] is Rattus norvegicus. Put plainly: Onset time in minutes, between ingestion and the first noticeable symptoms was determined. Type of experiment: functional.
The species entered for experiment [2] is Rattus norvegicus. In words: Duration of time in hours, after ingestion at which central effects begin to decline was determined. The experiment is classed as functional.
Experiment [3] is described as follows: […] and the effective dose required for the elicitation of the complete psychotomimetic spectrum was determined. Type of experiment: functional.
The species named for experiment [4] is Rattus norvegicus. In words: […] and the effective dose required for the elicitation of the complete psychotomimetic spectrum was determined; f =Not effective at 50 mg. Type of experiment: functional, organism-based.

`COc1cccc2[nH]cc(CCN(C)C(C)C)c12` displayed an Onset time in the experiment listed under Rattus norvegicus [1] of 45 min. In the experiment filed under Rattus norvegicus [2], this molecule had a Duration of 2 h. In experiment [3], this molecule showed an Effective dose of 30 mg/kg.

Consider `CC(C)N(C)CCc1c[nH]c2cccc(O)c12`, for which the Onset time in the experiment listed under Rattus norvegicus [1] is on record as 20 min. This molecule came in with a Duration in the experiment filed under Rattus norvegicus [2] of 6 h. The molecule also had an Effective dose in experiment [3] of 10 mg/kg.

As for `COc1ccc2c(CCN(C)C(C)C)c[nH]c2c1`, the Effective dose entry in the experiment listed under Rattus norvegicus [4] is “Not effective at 50mg”.

Consider `CC(C)N(C)CCc1c[nH]c2cc3ooc3cc12`, for which the Effective dose entry in the experiment filed under Rattus norvegicus [4] is “Not effective at 50mg”.

Consider `COc1cccc2c(CCN(C)C(C)C)c[nH]c12`, for which, in the experiment listed under Rattus norvegicus [4], the Effective dose entry was “Not effective at 50mg”.

`COc1cc2[nH]cc(CCN(C)C(C)C)c2cc1OC`: the Effective dose result in the experiment filed under Rattus norvegicus [4] was “Not effective at 50mg”.

In the experiment listed under Rattus norvegicus [1], `CC(C)N(C)CCc1c[nH]c2ccccc12` yielded an Onset time of 40 min. This molecule also had a Duration in the experiment filed under Rattus norvegicus [2] of 3 h. In experiment [3], this molecule showed an Effective dose of 25 mg/kg.

As to `COc1ccc2[nH]cc(CCN(C)C(C)C)c2c1`, in the experiment filed under Rattus norvegicus [1], the Onset time came to 9 min. For the same molecule, the Duration in the experiment filed under Rattus norvegicus [2] was found to be 3 h. The molecule also gave an Effective dose in experiment [3] of 5 mg/kg.
